Data: the supplement of paper PMC10307832

Columns and labels:
Assay in all cases: relative viability (nuclei count vs DMSO), 5 days (fraction); higher = more cells survive
[1] = compound: C/C(=N\NC(=S)N1CCC1)/C2=CC=CC=N2 + CC(=O)c1c(C)c2cnc(Nc3ccc(N4CCNCC4)cn3)nc2n(C2CCCC2)c1=O [Palbociclib] (partner 0.5 µM)
How it was run: (§1)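 Relative viability was taken as the ratio of nuclei in treated wells to nuclei in vehicle wells. Lung cancer cell lines in 1536-well plates received compounds by pin tool one day after seeding, either one drug alone or a fixed anchor-drug dose plus five library-drug doses (not always all listed) in √10 steps. Nuclei were counted on 4× images after 5 days of treatment, and values are medians of duplicate plates.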

[2] = compound: C/C(=N\NC(=S)N1CCC1)/C2=CC=CC=N2 + C[C@@H](Oc1cc(-c2cnn(C3CCNCC3)c2)cnc1N)c1c(Cl)ccc(F)c1Cl [Crizotinib] (partner 1 µM)
How it was run: as §1

[3] = compound: C/C(=N\NC(=S)N1CCC1)/C2=CC=CC=N2 + O=C(CCCCCCC(=O)Nc1ccccc1)NO [Vorinostat] (partner 1 µM)
How it was run: as §1

[4] = compound: C/C(=N\NC(=S)N1CCC1)/C2=CC=CC=N2 + NC(=O)Nc1cc(-c2cccc(F)c2)sc1C(=O)N[C@H]1CCCNC1 [AZD7762] (partner 0.2 µM)
How it was run: as §1

| Cell Line | relative viability ([1]; first compound 0.05 µM) | relative viability ([1]; first compound 0.1581 µM) | relative viability ([1]; first compound 0.5 µM) | relative viability ([1]; first compound 1.581 µM) | relative viability ([1]; first compound 5 µM) | relative viability ([2]; first compound 0.05 µM) | relative viability ([2]; first compound 0.1581 µM) | relative viability ([2]; first compound 0.5 µM) | relative viability ([2]; first compound 1.581 µM) | relative viability ([2]; first compound 5 µM) | relative viability ([3]; first compound 0.05 µM) | relative viability ([3]; first compound 0.1581 µM) | relative viability ([3]; first compound 0.5 µM) | relative viability ([3]; first compound 1.581 µM) | relative viability ([3]; first compound 5 µM) | relative viability ([4]; first compound 0.05 µM) | relative viability ([4]; first compound 0.1581 µM) | relative viability ([4]; first compound 0.5 µM) | relative viability ([4]; first compound 1.581 µM) | relative viability ([4]; first compound 5 µM) |
| --- | --- | --- | --- | --- | --- | --- | --- | --- | --- | --- | --- | --- | --- | --- | --- | --- | --- | --- | --- | --- |
| 201T | 0.27 | 0.351 | 0.307 | 0.213 | 0.205 | 0.773 | 0.983 | 0.485 | 0.477 | 0.321 | 0.351 | 0.349 | 0.315 | 0.301 | 0.281 | 0.287 | 0.285 | 0.273 | 0.211 | 0.233 |
| A549 | – | – | – | – | – | 0.0427 | 0.0518 | 0.0568 | 0.044 | 0.0637 | – | – | – | – | – | – | – | – | – | – |
| A-427 | 0.194 | 0.224 | 0.205 | 0.174 | 0.181 | 0.267 | 0.445 | 0.0997 | 0.0835 | 0.129 | 0.187 | 0.198 | 0.171 | 0.158 | 0.186 | 0.188 | 0.173 | 0.159 | 0.156 | 0.178 |
| ABC-1 | 0.344 | 0.412 | 0.328 | 0.239 | 0.275 | 0.23 | 0.189 | 0.2 | 0.172 | 0.142 | 0.268 | 0.339 | 0.308 | 0.275 | 0.302 | 0.282 | 0.342 | 0.341 | 0.288 | 0.305 |
| BEN | 0.346 | 0.332 | 0.336 | 0.283 | 0.313 | 0.193 | 0.182 | 0.244 | 0.177 | 0.169 | 0.233 | 0.293 | 0.296 | 0.281 | 0.3 | 0.265 | 0.339 | 0.288 | 0.238 | 0.279 |
| CAL-12T | 0.0958 | 0.145 | 0.131 | 0.109 | 0.122 | 0.106 | 0.0871 | 0.12 | 0.103 | 0.0896 | 0.0882 | 0.112 | 0.127 | 0.101 | 0.114 | 0.284 | 0.226 | 0.281 | 0.206 | 0.159 |
| COR-L23 | 0.0993 | 0.12 | 0.0934 | 0.0924 | 0.0839 | 0.11 | 0.119 | 0.12 | 0.0692 | 0.0727 | 0.11 | 0.099 | 0.0957 | 0.0832 | 0.0963 | – | – | – | – | – |
| COR-L 105 | 0.353 | 0.358 | 0.349 | 0.316 | 0.318 | 0.231 | 0.252 | 0.224 | 0.205 | 0.256 | 0.345 | 0.346 | 0.345 | 0.304 | 0.291 | – | – | – | – | – |
| Calu-6 | – | – | – | – | – | 0.117 | 0.136 | 0.128 | 0.109 | 0.102 | – | – | – | – | – | – | – | – | – | – |
| ChaGo-K-1 | 0.144 | 0.408 | 0.144 | 0.132 | 0.148 | 0.34 | 0.339 | 0.258 | 0.312 | 0.279 | 0.164 | 0.159 | 0.155 | 0.143 | 0.165 | 0.177 | 0.175 | 0.154 | 0.154 | 0.154 |
| EBC-1 | – | – | – | – | – | 0.173 | 0.187 | 0.163 | 0.162 | 0.128 | – | – | – | – | – | – | – | – | – | – |
| EKVX | 0.13 | 0.149 | 0.109 | 0.141 | 0.158 | 0.142 | 0.159 | 0.121 | 0.137 | 0.159 | 0.196 | 0.223 | 0.186 | 0.205 | 0.221 | 0.106 | 0.115 | 0.128 | 0.14 | 0.143 |
| EMC-BAC-2 | 0.274 | 0.324 | 0.261 | 0.223 | 0.253 | 0.365 | 0.336 | 0.16 | 0.153 | 0.142 | 0.193 | 0.199 | 0.134 | 0.153 | 0.135 | 0.252 | 0.259 | 0.241 | 0.176 | 0.216 |
| EPLC-272H | 0.117 | 0.138 | 0.155 | 0.056 | 0.0855 | 0.0969 | 0.187 | 0.121 | 0.126 | 0.171 | 0.0931 | 0.159 | 0.149 | 0.0509 | 0.107 | 0.106 | 0.104 | 0.106 | 0.0639 | 0.114 |
| H3255 | 0.259 | 0.278 | 0.304 | 0.259 | 0.266 | 0.289 | 0.309 | 0.288 | 0.222 | 0.189 | 0.334 | 0.288 | 0.179 | 0.274 | 0.289 | 0.302 | 0.308 | 0.286 | 0.244 | 0.237 |
| HARA | 0.188 | 0.133 | 0.233 | 0.139 | 0.164 | 0.361 | 0.227 | 0.152 | 0.115 | 0.0965 | 0.0948 | 0.381 | 0.0375 | 0.076 | 0.0809 | 0.129 | 0.199 | 0.144 | 0.104 | 0.124 |
| HCC-15 | 0.184 | 0.268 | 0.114 | 0.0996 | 0.091 | 0.21 | 0.412 | 0.0685 | 0.073 | 0.0642 | 0.204 | 0.275 | 0.145 | 0.139 | 0.116 | 0.084 | 0.084 | 0.105 | 0.113 | 0.103 |
| HCC-44 | 0.976 | 0.886 | 0.563 | 0.556 | 0.451 | 0.783 | 0.208 | 0.186 | 0.209 | 0.229 | 0.894 | 1.02 | 0.51 | 0.471 | 0.411 | 0.702 | 0.573 | 0.488 | 0.445 | 0.47 |
| HCC-78 | 0.355 | 0.368 | 0.273 | 0.329 | 0.323 | 0.338 | 0.251 | 0.237 | 0.142 | 0.167 | 0.427 | 0.414 | 0.338 | 0.23 | 0.231 | 0.327 | 0.332 | 0.226 | 0.169 | 0.174 |
